Experimental data as given in patent publication US6677450B2, “Topoisomerase inhibitors” (Bristol-Myers Squibb Company, priority 2000, dated 2004).

Tests used:
[1] = molecular target: T1, purified human topoisomerase I (Homo sapiens, UniProt P11387); assay: Topoisomerase I activity (in vitro): compound-induced, topoisomerase I-mediated single strand breaks in PM2 DNA; assay type: biochemical; conditions: 30 minutes at 37° C., agarose gel densitometry, read-out: EC50 (median effective concentration for inducing topoisomerase I-mediated single strand breaks in DNA)
T1 construct: purchased Topogen
T1 sequence (P11387 1-765): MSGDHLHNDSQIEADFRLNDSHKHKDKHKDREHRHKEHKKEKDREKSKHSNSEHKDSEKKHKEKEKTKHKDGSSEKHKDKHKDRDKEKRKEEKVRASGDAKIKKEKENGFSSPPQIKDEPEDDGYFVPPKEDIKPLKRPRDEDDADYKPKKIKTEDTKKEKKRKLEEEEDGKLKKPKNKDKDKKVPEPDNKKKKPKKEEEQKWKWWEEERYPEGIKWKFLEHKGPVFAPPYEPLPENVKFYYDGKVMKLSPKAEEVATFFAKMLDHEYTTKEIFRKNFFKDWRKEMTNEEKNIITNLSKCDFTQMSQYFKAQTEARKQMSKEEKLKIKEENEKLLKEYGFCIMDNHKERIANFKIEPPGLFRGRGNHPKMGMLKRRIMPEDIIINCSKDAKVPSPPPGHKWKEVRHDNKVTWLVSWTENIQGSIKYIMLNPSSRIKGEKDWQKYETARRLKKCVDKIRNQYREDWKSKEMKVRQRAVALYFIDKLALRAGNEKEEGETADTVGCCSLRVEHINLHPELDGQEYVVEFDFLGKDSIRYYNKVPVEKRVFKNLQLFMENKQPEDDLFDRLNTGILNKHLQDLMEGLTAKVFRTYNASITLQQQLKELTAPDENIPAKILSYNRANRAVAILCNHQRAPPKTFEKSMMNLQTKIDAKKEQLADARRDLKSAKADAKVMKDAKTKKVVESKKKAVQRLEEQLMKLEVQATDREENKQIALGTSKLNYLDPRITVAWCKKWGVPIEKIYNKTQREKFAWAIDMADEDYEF
Protocol: Topoisomerase I Activity (In Vitro)
Topoisomerase I activity was measured as described below: The procedure for assaying compound-induced, topoisomerase I-mediated single strand breaks in DNA was essentially that described by Hsiang, et al., (J. Biol Chem. 1985, 260, 14873-14878). Samples dissolved in 100% DMSO as either 10 μM or 10 mg/ml solutions, unless otherwise stated, were diluted in Tris-EDTA buffer. Marine bacteriophage PM2 DNA (Boehringer Mannheim) was also diluted in Tris-EDTA buffer to a concentration of 0.02 μg/μl. Different dilutions of the compound being evaluated were mixed with diluted DNA and this mixture was added to 1000 unit (one unit of enzyme activity is defined as the amount capable of relaxing 100 ng of supercoiled DNA in approximately 30 minutes at 37° C.) aliquots of purified human topoisomerase I (Topogen) in 2× reaction buffer to start the reaction. The compound-DNA-enzyme mixture was incubated for 30 minutes at 37° C. before stopping the reaction with warm stop buffer containing sodium dodecyl sulfate and proteinase K (Sigma). These mixtures were allowed to incubate at 37° C. for another 10 minutes, at which time the mixtures were removed from the waterbath and extracted with a 24:1 mixture of chloroform/isoamyl alcohol. Following centrifugation, aliquots of the aqueous phases were placed in wells of a 0.9% agarose (SeaKem) gel in Tris-borate buffer containing 0.5 μg/ml of ethidium bromide and subjected to electrophoresis for 15 hours to separate the different topological isomers and nicked and broken DNAs. After destaining the gel in water, the ethidium bromide stained DNA reaction products were visualized by exposing the gel to UV irradiation. Negatives of the photographs of the irradiated gels were scanned with a densitometer and areas under the peaks were calculated in order to obtain percent single strand DNA break formation for each sample. A median effective concentration (EC50) was obtained for each compound by interpolation between points of the resulting dose-effect curve which defines the potency of the compound for its effect in inducing topoisomerase I-mediated single strand breaks in DNA.
The topoisomerase I activity for certain compounds of the present invention is shown below in Table I.

murine P388 cell line = assay: In vitro cell-based cytotoxicity: proliferation inhibition, XTT tetrazolium assay; conditions: Mus musculus; P388 cells, 72 h at 37° C., XTT absorbance at 450 nm; read-out: IC50 (drug concentration required to inhibit cell proliferation to 50% of untreated control cells)
Protocol: In Vitro Cell-Based Cytotoxicity Activity
The proliferation inhibition activity against murine P388 cell line was measured as follows. Evaluation of a soluble tetrazolium/formazan assay for cell growth and drug sensitivity in culture, using human and other tumor cell lines, was done according to the procedure described in Cancer Res. 1988, 48, 4827-4833. Cells were plated at 4000 cells/well in 96 well microtiter plates and 24 h later drugs were added and serially diluted. The cells were incubated at 37° C. for 72 h, at which time a tetrazolium dye, XTT, containing phenazine methosulfate was added. A dehydrogenase enzyme in live cells reduced the XTT to a form that absorbs light at 450 nm, which could be quantitated spectrophotometrically. The greater the absorbance the greater the number of live cells. The results are expressed as an IC50, which is the drug concentration required to inhibit cell proliferation (i.e., absorbance at 450 nm) to 50% of that of untreated control cells.

- EC50 [1]: > 100 µM
- melting point: > 300 °C
Compound: O=C1NC(=O)c2c1c1c3ccc(F)cc3n3c1c1c2c2ccc(F)cc2n1[C@@H]1O[C@H](CO)[C@@H](O)[C@H](O)[C@@H]13 [Example 24, 2,10-Difluoro-12,13-[1,2-β-D-glucopyranosyl]-6,7,12,13-tetrahydro(5H)-indolo-[2,3-a]pyrrolo[3,4-c]carbazole-5,7-dione]
- IC50 (murine P388 cell line): 1.15 µM
